Measured values reported in ChEMBL document CHEMBL1201862, “PubChem BioAssay data set” (2004).
Active and inactive are the calls of the source.

Assays:
Bcl-2-like protein 10 = Bcl-2-like protein 10 (Homo sapiens, UniProt Q9HD36); experiment: displacers of TR3 peptide from Bcl-B, primary screen, selectivity assay for Bfl-1 inhibitor project, biochemical, fluorescence polarization, FITC-TR3 peptide (AID 748);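 further: fluorescence polarization from a fluorescein-labelled TR3 peptide binding purified Bcl-B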
Sequence of Bcl-2-like protein 10 (Q9HD36 whole entry): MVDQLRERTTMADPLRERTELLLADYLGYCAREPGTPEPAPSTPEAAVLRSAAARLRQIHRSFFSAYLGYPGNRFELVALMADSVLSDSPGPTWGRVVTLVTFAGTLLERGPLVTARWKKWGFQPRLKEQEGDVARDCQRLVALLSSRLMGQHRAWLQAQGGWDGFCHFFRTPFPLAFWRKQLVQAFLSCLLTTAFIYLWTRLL

[1] = cytotoxicity in HEK-293T cells, dose response, cytotoxicity control for BCR NF-kB inhibitor project, luminescence, B-cell screen hits (AID 489021); type: functional, cell-based;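 further: HEK-293T cells carrying an NF-kB luciferase reporter; cells exposed to compound for about 14 hours before viability readout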
[2] = target: T1, Heat shock factor protein 1 (Mus musculus, UniProt P38532); experiment: HSF1 potentiators in luciferase reporter cells, confirmation, cell-based, NIH3T3, luminescence, dose retest (AID 435004); type: functional;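 further: stress induced by proteasome inhibitor MG132 added 30 min after compound; luciferase reporter driven by HSF1 response element in NIH3T3 cells; actives raise luminescence as potentiators of the MG132 stress response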
T1 sequence (P38532 whole entry): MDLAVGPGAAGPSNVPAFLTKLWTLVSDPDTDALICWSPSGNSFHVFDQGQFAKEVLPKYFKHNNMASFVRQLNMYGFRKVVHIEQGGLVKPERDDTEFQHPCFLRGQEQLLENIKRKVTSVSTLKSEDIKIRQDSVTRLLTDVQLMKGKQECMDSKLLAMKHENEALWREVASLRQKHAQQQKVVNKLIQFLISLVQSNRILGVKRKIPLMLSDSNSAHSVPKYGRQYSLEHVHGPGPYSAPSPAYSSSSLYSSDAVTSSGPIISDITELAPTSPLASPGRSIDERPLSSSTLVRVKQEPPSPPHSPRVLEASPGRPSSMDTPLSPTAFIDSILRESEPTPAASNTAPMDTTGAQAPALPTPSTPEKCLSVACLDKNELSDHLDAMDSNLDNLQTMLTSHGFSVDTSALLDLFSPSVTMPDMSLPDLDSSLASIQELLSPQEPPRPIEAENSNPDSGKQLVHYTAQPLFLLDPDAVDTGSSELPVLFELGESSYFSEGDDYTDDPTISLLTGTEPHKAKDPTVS

[3] = target: Intestinal-type alkaline phosphatase (Homo sapiens, UniProt P09923); experiment: activation of human intestinal alkaline phosphatase – biochemical, dose response (AID 488873); type: functional
Sequence of Intestinal-type alkaline phosphatase (Homo sapiens, UniProt P09923) (P09923 whole entry): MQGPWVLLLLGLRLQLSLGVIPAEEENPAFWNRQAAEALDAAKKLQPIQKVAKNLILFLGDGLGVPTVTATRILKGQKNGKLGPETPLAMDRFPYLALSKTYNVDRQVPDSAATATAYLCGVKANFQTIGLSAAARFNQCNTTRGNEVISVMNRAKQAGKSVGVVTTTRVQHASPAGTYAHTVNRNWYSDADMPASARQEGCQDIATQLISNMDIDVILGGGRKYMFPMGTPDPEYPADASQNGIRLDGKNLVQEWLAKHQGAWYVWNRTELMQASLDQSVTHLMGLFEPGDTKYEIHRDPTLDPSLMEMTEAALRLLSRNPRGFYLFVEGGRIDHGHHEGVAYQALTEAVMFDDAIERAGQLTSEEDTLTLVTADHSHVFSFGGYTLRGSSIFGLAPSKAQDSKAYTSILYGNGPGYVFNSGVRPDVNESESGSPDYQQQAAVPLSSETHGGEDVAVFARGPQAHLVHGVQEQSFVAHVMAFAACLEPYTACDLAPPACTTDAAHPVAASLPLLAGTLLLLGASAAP

[4] = target: T2, Alkaline phosphatase, tissue-nonspecific isozyme (Homo sapiens, UniProt P05186); experiment: TNAP enzyme inhibition by screening hits, dose response, selectivity assay for mouse IAP inhibitor project, biochemical, human TNAP, uHTS hits (AID 488906); type: functional
T2 sequence (P05186 whole entry): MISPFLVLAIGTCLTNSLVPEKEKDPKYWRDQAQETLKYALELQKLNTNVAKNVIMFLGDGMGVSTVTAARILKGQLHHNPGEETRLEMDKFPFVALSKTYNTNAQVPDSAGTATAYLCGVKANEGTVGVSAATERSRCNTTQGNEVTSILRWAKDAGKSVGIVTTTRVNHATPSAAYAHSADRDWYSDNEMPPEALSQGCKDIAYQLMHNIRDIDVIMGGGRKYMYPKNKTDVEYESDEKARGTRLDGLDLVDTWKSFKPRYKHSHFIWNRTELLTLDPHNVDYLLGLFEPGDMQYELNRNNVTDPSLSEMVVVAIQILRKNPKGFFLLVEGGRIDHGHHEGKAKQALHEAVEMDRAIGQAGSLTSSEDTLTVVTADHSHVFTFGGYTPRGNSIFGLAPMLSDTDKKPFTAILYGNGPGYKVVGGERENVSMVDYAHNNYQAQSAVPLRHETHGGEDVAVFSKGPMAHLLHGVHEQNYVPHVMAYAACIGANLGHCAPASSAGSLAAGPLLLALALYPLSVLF

[5] = target: Intestinal-type alkaline phosphatase (Mus musculus, UniProt P24822); experiment: PubChem AID 488785; type: functional
Sequence of Intestinal-type alkaline phosphatase (Mus musculus, UniProt P24822) (P24822 whole entry): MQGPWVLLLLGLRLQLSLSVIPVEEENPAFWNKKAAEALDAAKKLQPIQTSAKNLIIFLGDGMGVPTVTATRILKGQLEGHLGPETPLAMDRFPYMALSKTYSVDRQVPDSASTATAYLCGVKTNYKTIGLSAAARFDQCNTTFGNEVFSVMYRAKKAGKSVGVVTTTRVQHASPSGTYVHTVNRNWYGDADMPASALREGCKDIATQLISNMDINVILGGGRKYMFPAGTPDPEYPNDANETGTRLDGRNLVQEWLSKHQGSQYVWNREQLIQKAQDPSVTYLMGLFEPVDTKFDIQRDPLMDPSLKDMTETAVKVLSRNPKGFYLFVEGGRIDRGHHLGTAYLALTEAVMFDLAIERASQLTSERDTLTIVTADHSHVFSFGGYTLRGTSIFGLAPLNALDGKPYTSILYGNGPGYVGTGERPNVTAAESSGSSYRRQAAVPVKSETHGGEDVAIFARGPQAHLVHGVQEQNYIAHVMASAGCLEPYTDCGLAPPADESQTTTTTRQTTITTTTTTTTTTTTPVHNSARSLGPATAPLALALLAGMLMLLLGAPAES

[6] = target: FAD-linked sulfhydryl oxidase ALR (Homo sapiens, UniProt P55789); experiment: inhibitors of human ALR sulfhydryl oxidase, dose response, biochemical, H2O2 detection, luminescence, cherry-pick (AID 493248)
Sequence of FAD-linked sulfhydryl oxidase ALR (P55789 whole entry): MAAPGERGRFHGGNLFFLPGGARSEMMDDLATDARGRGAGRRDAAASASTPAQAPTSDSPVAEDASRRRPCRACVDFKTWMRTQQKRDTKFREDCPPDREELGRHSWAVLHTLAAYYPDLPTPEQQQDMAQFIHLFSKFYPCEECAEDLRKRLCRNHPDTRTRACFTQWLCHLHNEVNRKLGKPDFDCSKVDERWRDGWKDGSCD

[7] = target: Heat shock protein HSP 90-alpha (Homo sapiens, UniProt P07900); type: functional, organism-based
[8] = inhibitors of firefly luciferase expression or activity, dose response, H4 neuroglioma cells, luminescence (AID 1990); type: functional, cell-based
[9] = target: T3, Kappa-type opioid receptor (Homo sapiens, UniProt P41145); type: functional
T3 sequence (P41145 whole entry): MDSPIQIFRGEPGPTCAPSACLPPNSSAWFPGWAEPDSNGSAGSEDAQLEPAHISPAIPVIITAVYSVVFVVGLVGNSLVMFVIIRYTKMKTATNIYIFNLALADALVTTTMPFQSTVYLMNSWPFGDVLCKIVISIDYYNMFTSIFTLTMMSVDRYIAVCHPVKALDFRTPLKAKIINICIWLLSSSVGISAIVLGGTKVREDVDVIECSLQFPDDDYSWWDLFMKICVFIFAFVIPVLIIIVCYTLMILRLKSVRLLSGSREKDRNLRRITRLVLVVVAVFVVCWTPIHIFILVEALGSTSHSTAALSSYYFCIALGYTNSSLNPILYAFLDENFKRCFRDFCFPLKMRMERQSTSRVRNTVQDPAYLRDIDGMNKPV

INS1 = experiment: beta cell apoptosis inhibitors, cytokine rescue, dose response, luminescence, retest (AID 449756); type: functional, cell-based; conditions: Rattus norvegicus;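 further: cell death triggered by IL-1 beta plus TNF-alpha plus IFN-gamma mixture; protective hits raise ATP signal compared with cytokine alone wells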
[10] = Luminescence Cell-Based Dose Response HTS to Identify Inhibitors of 5'UTR Stem-Loop Driven Prion Protein mRNA Translation in H4 Neuroglioblastoma Cells. [Related pubchem assays: 1827 (Project Summary), 1813 (Primary HTS)]; type: functional
[11] = target: T3, Kappa-type opioid receptor; type: functional; remark: listed apart in the source
Vero = experiment: cells; type: functional; conditions: Chlorocebus sabaeus
[12] = inhibitors of SNCA 5'UTR-driven translation, confirmation, luminescence, H4 neuroglioblastoma cells, dose confirmation (AID 2454); type: functional, cell-based;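 further: H4 neuroglioblastoma cells carrying an alpha-synuclein 5'UTR luciferase reporter; potency for inhibition of the luciferase signal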
cells = type: functional, cell-based
[13] = system: Streptococcus sp. 'group A'; experiment: growth inhibition of control SK(-) GAS strain, dose response, counter-screen for streptokinase expression inhibitor project, luminescence, kanamycin, BacTiterGlo, confirmation (AID 1900); type: functional, organism-based
Beta-galactosidase = Beta-galactosidase (Escherichia coli, UniProt Q8VNN2); type: functional
Sequence of Beta-galactosidase (Q8VNN2 whole entry): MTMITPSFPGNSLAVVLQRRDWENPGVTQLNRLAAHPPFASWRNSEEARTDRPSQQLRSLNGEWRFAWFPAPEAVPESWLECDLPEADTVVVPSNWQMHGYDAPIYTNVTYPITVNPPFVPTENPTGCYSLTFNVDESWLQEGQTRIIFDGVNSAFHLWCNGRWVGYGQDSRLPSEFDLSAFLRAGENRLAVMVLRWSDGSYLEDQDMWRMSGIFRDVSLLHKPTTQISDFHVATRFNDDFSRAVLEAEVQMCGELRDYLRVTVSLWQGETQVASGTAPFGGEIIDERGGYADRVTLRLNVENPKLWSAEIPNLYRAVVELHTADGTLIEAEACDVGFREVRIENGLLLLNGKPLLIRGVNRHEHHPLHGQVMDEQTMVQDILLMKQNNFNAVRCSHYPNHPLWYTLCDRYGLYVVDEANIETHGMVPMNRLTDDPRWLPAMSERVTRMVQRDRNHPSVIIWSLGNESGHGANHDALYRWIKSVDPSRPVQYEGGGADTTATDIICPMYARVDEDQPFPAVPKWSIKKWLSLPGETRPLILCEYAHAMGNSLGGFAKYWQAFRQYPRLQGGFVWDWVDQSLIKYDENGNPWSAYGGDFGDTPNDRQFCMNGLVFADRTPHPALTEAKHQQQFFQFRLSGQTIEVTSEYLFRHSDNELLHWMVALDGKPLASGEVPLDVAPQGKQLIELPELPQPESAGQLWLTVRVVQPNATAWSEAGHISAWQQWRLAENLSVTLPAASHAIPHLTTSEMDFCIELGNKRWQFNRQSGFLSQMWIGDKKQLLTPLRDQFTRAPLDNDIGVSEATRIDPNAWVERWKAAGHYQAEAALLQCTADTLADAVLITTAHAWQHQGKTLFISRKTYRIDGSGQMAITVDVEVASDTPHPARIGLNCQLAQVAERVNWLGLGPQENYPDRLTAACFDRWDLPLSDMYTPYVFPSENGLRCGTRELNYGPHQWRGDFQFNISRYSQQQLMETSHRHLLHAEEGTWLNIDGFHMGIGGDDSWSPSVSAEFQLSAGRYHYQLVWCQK

[14] = inhibitors of SNCA 5'UTR-driven reporter translation, confirmation, H4 neuroglioma cells, luminescence (AID 1988); type: functional, cell-based
Streptococcus = experiment: Group A Streptococcus viability loss, dose response, counter-screen for streptokinase expression inhibitor project, luminescence, BacTiterGlo (AID 1915); type: functional, organism-based;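 further: potency for reduction of bacterial viability or growth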
[15] = luciferase reporter signal reduction – luminescence, H4-C neuroglioblastoma cells, dose response (AID 2458); type: functional, cell-based;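 further: H4 neuroglioblastoma cells stably carrying a luciferase reporter gene fusion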
Cannabinoid receptor 2 [16] = target: T4, Cannabinoid receptor 2 (Homo sapiens, UniProt P34972); experiment: SAR analysis of antagonists of the Cannabinoid Receptor 2 using an Image-Based Assay - Set 2. [Related pubchem assays (depositor defined):AID1961, AID1965]; type: functional
T4 sequence (P34972 whole entry): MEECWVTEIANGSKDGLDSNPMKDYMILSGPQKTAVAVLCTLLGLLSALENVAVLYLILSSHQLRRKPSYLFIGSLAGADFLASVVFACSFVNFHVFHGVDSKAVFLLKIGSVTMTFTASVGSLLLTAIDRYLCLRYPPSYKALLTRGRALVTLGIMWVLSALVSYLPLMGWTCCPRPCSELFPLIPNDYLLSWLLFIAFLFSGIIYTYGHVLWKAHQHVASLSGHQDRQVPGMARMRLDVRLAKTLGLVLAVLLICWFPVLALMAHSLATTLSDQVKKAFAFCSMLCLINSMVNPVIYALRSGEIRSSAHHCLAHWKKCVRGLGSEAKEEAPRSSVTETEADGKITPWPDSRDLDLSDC

Cannabinoid receptor 1 = Cannabinoid receptor 1 (Homo sapiens, UniProt P21554); experiment: SAR analysis of antagonists of the Cannabinoid Receptor 1 using an Image-Based Assay. [Related pubchem assays (depositor defined):AID1961, AID1965]; type: functional
Sequence of Cannabinoid receptor 1 (P21554 whole entry): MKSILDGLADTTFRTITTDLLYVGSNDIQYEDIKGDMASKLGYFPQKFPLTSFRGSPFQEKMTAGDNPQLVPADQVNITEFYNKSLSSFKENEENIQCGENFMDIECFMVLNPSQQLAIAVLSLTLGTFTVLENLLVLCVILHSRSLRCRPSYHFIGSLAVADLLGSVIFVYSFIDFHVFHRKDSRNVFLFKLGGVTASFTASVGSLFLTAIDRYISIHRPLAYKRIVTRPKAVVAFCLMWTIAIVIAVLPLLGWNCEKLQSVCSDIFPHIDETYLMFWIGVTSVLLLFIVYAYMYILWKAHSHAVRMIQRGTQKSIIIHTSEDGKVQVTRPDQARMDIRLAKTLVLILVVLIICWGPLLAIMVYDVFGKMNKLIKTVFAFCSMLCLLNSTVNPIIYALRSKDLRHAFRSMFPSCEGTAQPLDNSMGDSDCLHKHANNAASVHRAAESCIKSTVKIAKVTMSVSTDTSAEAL

[17] = target: T5, G-protein coupled receptor 55 (Homo sapiens, UniProt Q9Y2T6); experiment: SAR analysis of selective Agonists of GPR55 using an Image-Based Assay. [Related pubchem assays (depositor defined):AID1961, AID1965]; type: functional
T5 sequence (Q9Y2T6 whole entry): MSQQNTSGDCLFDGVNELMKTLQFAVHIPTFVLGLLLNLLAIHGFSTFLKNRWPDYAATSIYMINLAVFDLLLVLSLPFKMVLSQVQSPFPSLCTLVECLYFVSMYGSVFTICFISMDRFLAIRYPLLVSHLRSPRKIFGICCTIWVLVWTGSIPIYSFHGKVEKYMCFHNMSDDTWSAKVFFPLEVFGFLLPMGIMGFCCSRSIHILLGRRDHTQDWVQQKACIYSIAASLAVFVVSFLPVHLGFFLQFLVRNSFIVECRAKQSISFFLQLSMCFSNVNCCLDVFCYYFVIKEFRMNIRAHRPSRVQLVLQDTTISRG

Cannabinoid receptor 2 [18] = target: T4, Cannabinoid receptor 2; experiment: SAR analysis of agonists of the Cannabinoid Receptor 2 using an Image-Based Assay - Set 2. [Related pubchem assays (depositor defined):AID1961, AID1965]; type: functional
[19] = target: T5, G-protein coupled receptor 55; experiment: GPR55 agonists via beta-arrestin recruitment, primary screen, imaging, U2OS cells, beta-arrestin-GFP redistribution (AID 1961); type: functional

Compound: Cc1ccc(OCCC(=O)OCC(=O)Nc2ccc(Cl)cn2)cc1
- IC50 (Bcl-2-like protein 10): 72.8 µM (inactive)

Compound: COc1ccc(C(=O)n2nc(-c3ccc(Cl)cc3)nc2N)cc1OC
- IC50 [1]: > 80 µM (inactive)
- EC50 [2]: > 260 µM (inconclusive)

Compound: Cc1ccc(C)c(S(=O)(=O)Nc2ccc(O)c(Sc3nnc[nH]3)c2)c1
- EC50 [3]: 11.9 µM (active)
- IC50 [4]: 5.46 µM (active)
- IC50 [5]: 2.75 µM (active)
- AC50 [6]: 2.05 µM (active)

Compound: COc1ccc(N=Nc2ccc(O)c3ncccc23)cc1
- AC50 [7]: 3.34 µM (active)
- EC50 [8]: 8.21 µM (active)
- IC50 [9]: > 32 µM
- AC50 (INS1): 1.16 µM (active)
- EC50 [10]: 6.71 µM (active)
- IC50 [11]: 5.64 µM (active)
- CC50 (Vero): 6.3 µM (active)
- EC50 [12]: > 12 µM (not active)
- EC50 (cells): 1.65 µM (active)
- EC50 [13]: 0.191 µM (active)
- EC50 (Beta-galactosidase): 24.6 µM (active)
- EC50 [14]: < 0.1 µM (active)
- EC50 (Streptococcus): 2.5 µM (active)
- EC50 [15]: > 12 µM (not active)

Compound: O=Cc1cn(Cc2ccc([N+](=O)[O-])cc2)c2ccccc12
- EC50 [8]: 5.79 µM (active)
- EC50 [10]: < 0.1 µM (active)
- EC50 [12]: 1.02 µM (active)
- EC50 (cells): 0.466 µM (active)
- EC50 [14]: 0.233 µM (active)
- EC50 [15]: 1.25 µM (active)

Compound: COc1cc2c(cc1NC(=O)CSc1ccccc1)oc1ccccc12
- IC50 (Cannabinoid receptor 2 [16]): > 32 µM (inactive)
- IC50 (Cannabinoid receptor 1): > 32 µM (inactive)
- EC50 [17]: 0.627 µM (active)
- EC50 (Cannabinoid receptor 2 [18]): > 32 µM (inactive)
- EC50 [19]: 0.671 µM (active)

Compound: COc1ccc(-c2nn(C)c(=O)c3ccccc23)cc1NS(C)(=O)=O
- IC50 [1]: > 80 µM (inactive)
